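Dose response: 5 concentrations. Exposure: 48 h. Format: 96-well plates. Endpoint: linear interpolation; highest concentration if not reached. TGI: total growth inhibition.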
Legend:
Test in all cases: NCI-60 cell line screen, 48 h
A549 NSCLC = test system: A549 NSCLC
MALME-3M melanoma = test system: MALME-3M melanoma
NCI-H522 lung = test system: NCI-H522 lung
IGROV1 ovarian = test system: IGROV1 ovarian
OVCAR-8 ovarian = test system: OVCAR-8 ovarian
SR leukemia = test system: SR leukemia
SNB-78 CNS = test system: SNB-78 CNS
SK-MEL-5 melanoma = test system: SK-MEL-5 melanoma
SK-MEL-28 melanoma = test system: SK-MEL-28 melanoma
MDA-N = test system: MDA-N

Structure (SMILES) | TGI (A549 NSCLC) [µM] | TGI (MALME-3M melanoma) [µM] | TGI (NCI-H522 lung) [µM] | TGI (IGROV1 ovarian) [µM] | TGI (OVCAR-8 ovarian) [µM] | TGI (SR leukemia) [µM] | TGI (SNB-78 CNS) [µM] | TGI (SK-MEL-5 melanoma) [µM] | TGI (SK-MEL-28 melanoma) [µM] | TGI (MDA-N) [µM]
O=C(c1cc2ccccc2o1)N(Cc1ccccc1)c1ccccc1 | > 100 | 59.8 | 33.9 | > 100 | 66.2 | 68.4 | > 100 | 31.2 | 87 | 
CC(=O)c1cccc(NC(=O)C(=O)C(C2OC(=O)c3ccccc32)[N+](=O)[O-])c1 (stereo not given) | > 100 | > 100 |  | > 100 |  | > 100 | > 100 | > 100 | > 100 | 
Cc1c(C(=O)C/C(=N/NC(=O)C[n+]2ccccc2)C(=O)Nc2ccccc2)[n+](=O)c2ccccc2n1O | > 100 | > 100 | > 100 | > 100 | > 100 | > 100 | > 100 | > 100 | > 100 | 
COc1c(NC(C)=O)cc(C)cc1NC(C)=O | > 100 |  | > 100 |  | > 100 | > 100 | > 100 | > 100 | > 100 | 
CC(=O)O[C@]1(C)OC(=O)[C@@H](C)N1[N+](=O)[O-] | > 100 | > 100 | > 100 | > 100 | > 100 | > 100 | > 100 | > 100 | > 100 | 
COc1ccc2c(c1)[n+]([O-])c(-c1ccccc1)c(N)[n+]2[O-] | > 100 | 47.2 | 34.4 | > 100 | > 100 |  | > 100 | 35 | 69.3 | 
COC(=O)C1=C(C(=O)OC)C23CC1C1C(C(=O)OC)=C(C(=O)OC)C12C1C=CC3C2C(=O)OC(=O)C21 (stereo not given) | > 100 | > 100 | 63.5 | > 100 | > 100 |  | > 100 | > 100 | > 100 | 
O=P(NC12CC3CC(CC(C3)C1)C2)(N1CC1)N1CC1 | > 100 | > 100 | > 100 | > 100 | > 100 | > 91.4 | > 100 | > 100 | > 100 | > 100
O=C1c2ccccc2C(=O)c2c(NCCNCCO)ccc(O)c21 | 11.2 | 11.7 | 11.8 | 13.4 | 13.5 |  | 20.2 | 12.7 | 11.4 | 
CN[C@@H](C)[C@@H](N)c1ccccc1 | > 100 | > 100 | > 100 | > 100 | > 100 |  | > 100 | > 100 | > 100 | 
C[C@]12CCc3nonc3C1CC[C@@H]1C2CC[C@]2(C)NC(=O)CCC12 (stereo not given in full) | > 100 | > 100 | > 100 | > 100 | > 100 |  | > 100 | > 100 | > 100 | 
O=c1c2ccccc2n2n1CC(O)C2 (stereo not given) | > 100 | > 100 | > 100 | > 100 | > 100 | > 100 | > 100 | > 100 | > 100 | 

Reference: PubChem BioAssay (NCI)
